Test results taken from patent publication US20170275269A1, “BENZYL SUBSTITUTED INDAZOLES AS BUB1 KINASE INHIBITORS” (Bayer Pharma Aktiengesellschaft, priority 2014, published 2017).
Like-named read-outs stand apart in the source and are kept apart here.

Assays:
[1] = target: T1, catalytic domain of human Bub1 (amino acids 704-1085) (Homo sapiens, UniProt O43683); assay: Bub1 kinase assay (TR-FRET); assay type: biochemical
T1 construct: catalytic domain of human Bub1 (amino acids 704-1085); His6 (N); made in house; host or cells: Hi5 insect cells
T1 sequence (O43683 704-1085): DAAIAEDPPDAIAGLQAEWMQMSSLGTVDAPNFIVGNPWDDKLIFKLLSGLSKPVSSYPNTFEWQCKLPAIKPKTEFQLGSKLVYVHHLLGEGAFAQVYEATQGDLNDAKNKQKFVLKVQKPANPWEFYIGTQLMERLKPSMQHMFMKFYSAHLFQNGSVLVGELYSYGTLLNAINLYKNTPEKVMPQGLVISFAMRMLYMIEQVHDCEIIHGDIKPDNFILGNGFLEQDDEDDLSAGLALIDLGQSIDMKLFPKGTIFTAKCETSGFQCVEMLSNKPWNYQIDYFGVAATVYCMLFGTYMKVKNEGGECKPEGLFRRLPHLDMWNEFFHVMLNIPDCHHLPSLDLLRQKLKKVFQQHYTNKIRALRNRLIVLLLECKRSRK
Procedure: To this end, 100-fold concentrated compound solutions (in DMSO) were previously prepared by serial dilution (1:3.4) of 2 mM stocks in a clear low volume 384-well source microtiter plate (Greiner Bio-One, Frickenhausen, Germany), from which 50 nL of compounds were transferred into a black low volume test microtiter plate from the same supplier. […] The resulting mixture (5 μL final volume) was incubated at 22° C. during 60 min., and the reaction was stopped by the addition of 5 μL of an aqueous EDTA-solution (50 mM EDTA, in 100 mM HEPES pH 7.5 and 0.2% (w/v) bovine serum albumin) which also contained the TR-FRET detection reagents (0.2 μM streptavidin-XL665 [Cisbio Bioassays, Codolet, France] and 1 nM anti-phosho-Serine antibody [Merck Millipore, cat. #35-001] and 0.4 nM LANCE EU-W1024 labeled anti-mouse IgG antibody [Perkin-Elmer, product no. AD0077, alternatively a Terbium-cryptate-labeled anti-mouse IgG antibody from Cisbio Bioassays can be used]). The stopped reaction mixture was further incubated 1 h at 22° C. in order to allow the formation of complexes between peptides and detection reagents. Subsequently, the amount of product was evaluated by measurement of the resonance energy transfer from the Eu-chelate-antibody complex recognizing the Phosphoserine residue to the streptavidin-XL665 bound to the biotin moiety of the peptide. […] IC50 values were calculated by fitting the normalized inhibition data to a 4-parameter logistic equation (Minimum, Maximum, IC50, Hill; Y=Max+(Min−Max)/(1+(X/IC50)Hill)).

[2] = test system: HeLa human cervical cancer cell line; assay: Proliferation assay (HeLa cell line)
Procedure: Cultivated tumor cells (cells were ordered from ATCC) were plated at a density of 3000 cells/well in a 96-well multititer plate in 200 μL of growth medium supplemented 10% fetal calf serum. After 24 hours, the cells of one plate (zero-point plate) were stained with crystal violet (see below), while the medium of the other plates was replaced by fresh culture medium (200 μL), to which the test substances were added in various concentrations (0 μM, as well as in the range of 0.001-10 μM; the final concentration of the solvent dimethyl sulfoxide was 0.5%). The cells were incubated for 4 days in the presence of test substances. Cell proliferation was determined by staining the cells with crystal violet: the cells were fixed by adding 20 μL/measuring point of an 11% glutaric aldehyde solution for 15 minutes at room temperature. After three washing cycles of the fixed cells with water, the plates were dried at room temperature. The cells were stained by adding 100 μL/measuring point of a 0.1% crystal violet solution (pH 3.0). After three washing cycles of the stained cells with water, the plates were dried at room temperature. The dye was dissolved by adding 100 μL/measuring point of a 10% acetic acid solution. Absorption was determined by photometry at a wavelength of 595 nm. The change of cell number, in percent, was calculated by normalization of the measured values to the absorption values of the zero-point plate (=0%) and the absorption of the untreated (0 μm) cells (=100%). The IC50 values were determined by means of a 4 parameter fit.

[3] = test system: HeLa human cervical tumor cells; assay: Proliferation Assay (HeLa+Paclitaxel); settings: read-out: Biological Assay 3.0: Proliferation Assay (HeLa + Paclitaxel):, 3 nM paclitaxel, 92 hours with test substance
Procedure: Proliferation Assay (HeLa+Paclitaxel):
Cultivated HeLa human cervical tumor cells (DSMZ ACC-57) were plated at a density of 3000 cells/well in a 96-well multititer plate in 200 μL of growth medium supplemented 10% fetal calf serum. After 24 hours, the cells of one plate (zero-point plate) were stained with crystal violet (see below). The medium of the other plates was supplemented with 3 nM of paclitaxel (Sigma-Aldrich) and the cells were incubated at 37° C. After 4 hours the test substances were added in various concentrations (0 μM, as well as in the range of 0.001-10 μM; the final concentration of the solvent dimethyl sulfoxide was adjusted to 0.1%) using a Hewlett-Packard HP D300 Digital Dispenser. The cells were incubated for another 92 hours at 37° C. in the presence of test substances. Cell proliferation was determined by staining the cells with crystal violet: the cells were fixed by adding 20 μL/measuring point of an 11% glutaric aldehyde solution for 15 minutes at room temperature. After three washing cycles of the fixed cells with water, the plates were dried at room temperature. The cells were stained by adding 100 μL/measuring point of a 0.1% crystal violet solution (pH 3.0). After three washing cycles of the stained cells with water, the plates were dried at room temperature. The dye was dissolved by adding 100 μL/measuring point of a 10% acetic acid solution. Absorption was determined by photometry at a wavelength of 595 nm. The change of cell number, in percent, was calculated by normalization of the measured values to the absorption values of the zero-point plate (=0%) and the absorption of the untreated (0 μm) cells (=100%). The IC50 values were determined by means of a 4 parameter fit.

[4] = 10 μM ATP, 1 μM peptide substrate, read-out: Biological Assay 1: Bub1 kinase assay median IC50
[5] = Homo sapiens, 96 h, read-out: Biological Assay 2: Proliferation assay (HeLa cell line) median IC50
[6] = Homo sapiens, 96 h, read-out: Biological Assay 2: Proliferation assay (HeLa cell line) median IC50, HeLa, 4 days incubation, crystal violet

IC50 [1, 4] [nM] | IC50 [2, 5] [nM] | IC50 [3] [nM] | IC50 ([2]; read-out: Biological Assay 2: Proliferation assay (HeLa cell line) median IC50, 4 days incubation, crystal violet) [nM] | Structure (SMILES) | IC50 [1] [nM] | IC50 [2, 6] [nM]
10 | 1100 | 69 | – | CN1CCN(CCCOc2cnc(-c3nn(Cc4c(F)cc(OCC5CC5)cc4F)c4ccccc34)nc2Nc2ccncc2Cl)CC1 [Example 2-1-1, N-(3-chloropyridin-4-yl)-2-{1-[4-(cyclopropylmethoxy)-2,6-difluorobenzyl]-1H-indazol-3-yl}-5-[3-(4-methylpiperazin-1-yl)propoxy]pyrimidin-4-amine] | – | –
50 | 5800 | 760 | – | Fc1cc(OCC2CC2)cc(F)c1Cn1nc(-c2ncc(OCCCN3CCOCC3)c(Nc3ccncc3Cl)n2)c2ccccc21 [Example 2-1-2, N-(3-chloropyridin-4-yl)-2-{1-[4-(cyclopropylmethoxy)-2,6-difluorobenzyl]-1H-indazol-3-yl}-5-[3-(morpholin-4-yl)propoxy]pyrimidin-4-amine] | – | –
6.8 | 3400 | 78 | – | CCOc1cc(F)c(Cn2nc(-c3ncc(OCCCN4CCOCC4)c(Nc4ccnc(NC(C)=O)c4)n3)c3ccccc32)c(F)c1 [Example 2-1-3, N-[4-({2-[1-(4-ethoxy-2,6-difluorobenzyl)-1H-indazol-3-yl]-5-[3-(morpholin-4-yl)-propoxy]pyrimidin-4-yl}amino)pyridin-2-yl]acetamide] | – | –
4.6 | 2000 | 160 | – | CCOc1cc(F)c(Cn2nc(-c3ncc(OCCCN4CCN(C)CC4)c(Nc4ccnc(NC(C)=O)c4)n3)c3ccccc32)c(F)c1 [Example 2-1-4, N-[4-({2-[1-(4-ethoxy-2,6-difluorobenzyl)-1H-indazol-3-yl]-5-[3-(4-methylpiperazin-1-yl)propoxy]pyrimidin-4-yl}amino)pyridin-2-yl]acetamide] | – | –
– | – | 440 | – | CCOc1cc(F)c(Cn2nc(-c3ncc(OCCCN4CCN(CC(F)(F)F)CC4)c(Nc4ccnc(NC(C)=O)c4)n3)c3ccccc32)c(F)c1 [Example 2-1-5, N-{4-[(2-[1-(4-ethoxy-2,6-difluorobenzyl)-1H-indazol-3-yl]-5-{3-[4-(2,2,2-tri-fluoroethyl)piperazin-1-yl]propoxy}pyrimidin-4-yl)amino]pyridin-2-yl}acetamide] | 23 | > 10000
9.6 | 1100 | 860 | – | CCOc1cc(F)c(Cn2nc(-c3ncc(OCCCN4CCN(C)CC4)c(Nc4ccncn4)n3)c3ccccc32)c(F)c1 [Example 2-1-6, 2-[1-(4-ethoxy-2,6-difluorobenzyl)-1H-indazol-3-yl]-5-[3-(4-methylpiperazin-1-yl)propoxy]-N-(pyrimidin-4-yl)pyrimidin-4-amine] | – | –
12 | 3700 | 430 | – | CCOc1cc(F)c(Cn2nc(-c3ncc(OCCCN4CCN(C)CC4)c(Nc4ccnc(C)n4)n3)c3ccccc32)c(F)c1 [Example 2-1-7, 2-[1-(4-ethoxy-2,6-difluorobenzyl)-1H-indazol-3-yl]-5-[3-(4-methylpiperazin-1-yl)propoxy]-N-(2-methylpyrimidin-4-yl)pyrimidin-4-amine] | – | –
28 | 1200 | 370 | – | CCOc1cc(F)c(Cn2nc(-c3ncc(OCCCN4CCN(C)CC4)c(Nc4ccnc(C)c4)n3)c3ccccc32)c(F)c1 [Example 2-1-8, 2-[1-(4-ethoxy-2,6-difluorobenzyl)-1H-indazol-3-yl]-5-[3-(4-methylpiperazin-1-yl)propoxy]-N-(2-methylpyridin-4-yl)pyrimidin-4-amine] | – | –
19 | 3700 | 490 | – | Fc1cc(OCC(F)F)cc(F)c1Cn1nc(-c2ncc(OCCCN3CCOCC3)c(Nc3ccncn3)n2)c2ccccc21 [Example 2-1-9, 2-{1-[4-(2,2-difluoroethoxy)-2,6-difluorobenzyl]-1H-indazol-3-yl}-5-[3-(morpholin-4-yl)propoxy]-N-(pyrimidin-4-yl)pyrimidin-4-amine] | – | –
250 | 550 | 160 | – | CCOc1cc(F)c(Cn2nc(-c3ncc(OCCCN4CCN(C)CC4)c(Nc4cc(C)ncc4C)n3)c3ccccc32)c(F)c1 [Example 2-1-10, N-(2,5-dimethylpyridin-4-yl)-2-[1-(4-ethoxy-2,6-difluorobenzyl)-1H-indazol-3-yl]-5-[3-(4-methylpiperazin-1-yl)propoxy]pyrimidin-4-amine] | – | –
370 | – | – | – | Cc1cc(Nc2nc(-c3nn(Cc4c(F)cc(OCC5CC5)cc4F)c4ccccc34)ncc2OCCCN2CCOCC2)ccn1 [Example 2-1-11, 2-{1-[4-(cyclopropylmethoxy)-2,6-difluorobenzyl]-1H-indazol-3-yl}-N-(2-methylpyridin-4-yl)-5-[3-(morpholin-4-yl)propoxy]pyrimidin-4-amine] | – | –
– | – | 140 | – | CCOc1cc(F)c(Cn2nc(-c3ncc(OC[C@H](C)NCC(F)(F)F)c(Nc4ccnc(C)n4)n3)c3ccccc32)c(F)c1 [Example 2-4-1, 2-[1-(4-ethoxy-2,6-difluorobenzyl)-1H-indazol-3-yl]-N-(2-methylpyrimidin-4-yl)-5-({(2S)-2-[(2,2,2-trifluoroethyl)amino]propyl}oxy)pyrimidin-4-amine] | 11 | 880
– | – | 260 | > 10000 | CCOc1cc(F)c(Cn2nc(-c3ncc(OCCN4CCOCC4)c(Nc4ccncc4)n3)c3ccccc32)c(F)c1 [Example 3-1-1, 2-[1-(4-ethoxy-2,6-difluorobenzyl)-1H-indazol-3-yl]-5-[2-(morpholin-4-yl)ethoxy]-N-(pyridin-4-yl)pyrimidin-4-amine, reference compound] | – | 9000

Structure (SMILES) | IC50 [1, 4] [nM] | IC50 [2, 5] [nM] | IC50 [3] [nM] | IC50 ([2]; read-out: Biological Assay 2: Proliferation assay (HeLa cell line) median IC50, 4 days incubation, crystal violet) [nM] | IC50 [1] [nM] | IC50 [2, 6] [nM]
CCOc1cc(F)c(Cn2nc(-c3ncc(OCCCCN4CC(F)(F)C4)c(Nc4ccncc4Cl)n3)c3ccccc32)c(F)c1 [Example 2-2-1, N-(3-chloropyridin-4-yl)-5-[4-(3,3-difluoroazetidin-1-yl)butoxy]-2-[1-(4-ethoxy-2,6-difluorobenzyl)-1H-indazol-3-yl]pyrimidin-4-amine] | – | – | 140 | – | 19 | 9000
CCOc1cc(F)c(Cn2nc(-c3ncc(OCCCCN4CC(F)C4)c(Nc4cc(C)ncc4C)n3)c3ccccc32)c(F)c1 [Example 2-3-1, N-(2,5-dimethylpyridin-4-yl)-2-[1-(4-ethoxy-2,6-difluorobenzyl)-1H-indazol-3-yl]-5-[4-(3-fluoroazetidin-1-yl)butoxy]pyrimidin-4-amine] | – | – | 33 | – | 39 | 1400
CCOc1cc(F)c(Cn2nc(-c3ncc(OCCCCN4CC(F)(F)C4)c(Nc4ccnc(C)n4)n3)c3ccccc32)c(F)c1 [Example 2-3-2, 5-[4-(3,3-difluoroazetidin-1-yl)butoxy]-2-[1-(4-ethoxy-2,6-difluorobenzyl)-1H-indazol-3-yl]-N-(2-methylpyrimidin-4-yl)pyrimidin-4-amine] | – | – | 26 | – | 34 | 9300
CCOc1cc(F)c(Cn2nc(-c3ncc(OCCCCN4CC(F)C4)c(Nc4ccnc(C)n4)n3)c3ccccc32)c(F)c1 [Example 2-3-3, 2-[1-(4-ethoxy-2,6-difluorobenzyl)-1H-indazol-3-yl]-5-[4-(3-fluoroazetidin-1-yl)butoxy]-N-(2-methylpyrimidin-4-yl)pyrimidin-4-amine] | – | – | 23 | – | 12 | 3700
CCOc1cc(F)c(Cn2nc(-c3ncc(OCCCCN4CCC(F)(F)CC4)c(Nc4ccnc(C)n4)n3)c3ccccc32)c(F)c1 [Example 2-3-4, 5-[4-(4,4-difluoropiperidin-1-yl)butoxy]-2-[1-(4-ethoxy-2,6-difluorobenzyl)-1H-indazol-3-yl]-N-(2-methylpyrimidin-4-yl)pyrimidin-4-amine] | – | – | 51 | – | 49 | > 10000
CCOc1cc(F)c(Cn2nc(-c3ncc(OCCCCN4CCC(F)(F)CC4)c(Nc4cc(C)ncc4C)n3)c3ccccc32)c(F)c1 [Example 2-3-5, 5-[4-(4,4-difluoropiperidin-1-yl)butoxy]-N-(2,5-dimethylpyridin-4-yl)-2-[1-(4-ethoxy-2,6-difluorobenzyl)-1H-indazol-3-yl]pyrimidin-4-amine] | – | – | 31 | – | 230 | 6800
